We go through two compounds from patent US8933012B2, “Glycopeptide antibiotic derivative” (priority 2006, dated 2015).

In brackets after ≈: the same amount, converted by molar mass.

A short description of data set [1]: Single-dose intravenous toxicity screening test in mouse. The format is in vivo. The note with it: single intravenous dose 30 mg/kg, compared with corresponding compound having -COOH at the C-terminal. As to the method:
The compounds of the invention were tested for water solubility and toxicity.

Data set [2] relates to vancomycin-resistant enterococcus E. faecalis SR7914 (VanA). Description: In vitro antimicrobial activity, MIC by microdilution method. The format is cell-based. As to the method: (§1) In Vitro Assay of Antimicrobial Activity
(§2) For several compounds of the invention, minimal inhibitory concentration (MIC) was determined by the microdilution method using cation adjusted Mueller-Hinton broth well known in the art.

In data set [3] the test system is methicillin-resistant Staphylococcus aureus S. aureus SR3637 (H-MRSA). The description is as above. The data set is classed as cell-based. How it is done:
as §1, §2

Turning to `CCNNC(=O)C1NC(=O)C2NC(=O)[C@H](NC(=O)[C@@H]3NC(=O)[C@H](CC(N)=O)NC(=O)C(NC(=O)[C@@H](CC(C)C)NC)[C@H](O)c4ccc(c(Cl)c4)Oc4cc3cc(c4OC3O[C@H](CO)[C@@H](O)[C@H](O)[C@H]3OC3C[C@](C)(NCc4cccc(NC(=O)c5ccc(OC(F)(F)F)cc5)c4)[C@H](O)[C@H](C)O3)Oc3ccc(cc3Cl)[C@H]2O)c2ccc(O)c(c2)-c2c(O)cc(O)cc21` (stereo partly drawn) [Example 2], the “histological findings in kidney etc.” value in data set [1] was “good histological findings”.

In the case of `CN[C@H](CC(C)C)C(=O)NC1C(=O)N[C@@H](CC(N)=O)C(=O)N[C@H]2C(=O)N[C@H]3C(=O)NC(C(=O)NC(C(=O)NO)c4cc(O)cc(O)c4-c4cc3ccc4O)[C@H](O)c3ccc(c(Cl)c3)Oc3cc2cc(c3OC2O[C@H](CO)[C@@H](O)[C@H](O)[C@H]2OC2C[C@](C)(NCCC3CCN(C(=O)Nc4ccc(OC(F)(F)F)cc4)CC3)[C@H](O)[C@H](C)O2)Oc2ccc(cc2Cl)[C@H]1O` (stereo partly drawn) [Example 4], the values for the minimal inhibitory concentration (MIC) in data set [2] and in data set [3] were 4 µg/mL (≈ 2.25 µM) and 0.5 µg/mL (≈ 0.281 µM), respectively.
